Legend:
[1] = Determination of peroxynitrite decomposition catalysis: rates of reaction between peroxynitrite and iron porphyrins in phosphate buffer; format: biochemical; details: phosphate buffer pH=7.4
Procedure: To screen compounds for peroxynitrite decomposition catalytic activity of the invention, peroxynitrite is prepared and isolated as its sodium salt by the reaction of acidic hydrogen peroxide with sodium nitrite followed by rapid quenching with NaOH as set out by Halfpenny and Robinson, in J. Chem. Soc., 928-938 (1952). Peroxynitrite has an absorbance maximum at 302 nm with an extinction coefficient of 1670 M^−1 cm^−1. Therefore, it is possible to directly observe the decomposition of peroxynitrite by monitoring the change in absorbance at 302 nm by stop-flow spectrophotometric analysis. For example, the decomposition of peroxynitrite at an accelerated rate (relative to the natural decomposition rate of peroxynitrite) upon the addition of the decomposition catalysts of the invention.
A high rate of peroxynitrite decomposition is an important indicator of biological activity in vitro and in vivo. The rates of reaction between peroxynitrite and various iron porphyrins were measured at several different concentrations of catalyst in phosphate buffer (pH=7.4). The ONOO^− decay rate (M^−1s^−1) for FeTDMImP was determined to be […], and the keat, for FeTDCMImP was measured at 4.6×10^5. In the same studies the decay rates for the iron porphyrins FeTDMImP, FeTDCMImP, FeTDPImP (see, e.g., U.S. Pat. No. 6,448,239) were 1.1×10^6. 4.6×10^5 and 1.9×10^6, respectively.

[2] = Stopped-flow spectrometry of peroxynitrite decomposition, absorption of peroxynitrite at 324 nm monitored; format: biochemical; details: pH 7.4 phosphate buffer
Procedure: FIG. 4 is stopped-flow spectroscopy of peroxynitrite decomposition catalyzed by FeTDCImP (12). (A) diode array scan of 10 μM (12) in pH 7.4 PBS mixed with 600 μM, t=2 s; (B) decay of peroxynitrite monitored at 324 nm, condition that same as in A. It was fitted into a first order kinetics model using KinetAssyst software. Data was average of four parallel experiments.
It was rationalized that the electron-withdrawing cationic feature elevated its catalytic activity as compared to anionic porphyrins, while its electron-donating anionic feature lowered its catalytic activity as compared to cationic porphyrins.

COCCOCCn1cc[n+](CCOCCOC)c1-c1c2nc(c(-c3n(CCOCCOC)cc[n+]3CCOCCOC)c3ccc([n-]3)c(-c3n(CCOCCOC)cc[n+]3CCOCCOC)c3nc(c(-c4n(CCOCCOC)cc[n+]4CCOCCOC)c4ccc1[n-]4)C=C3)C=C2.[Fe+3] [FeTDPImP, iron(III) meso-tetrakis(N,N-di-(2-(2-methoxyethoxy)ethyl)-imidazol-2-yl)porphyrin]
decay rates for the iron porphyrins (in the same studies) [1]: 1.9×10^6

iron(III) meso-tetrakis(N,N-dicarboxymethyl)-imidazol-2-yl)porphyrin [FeTDCMImP]
second order rate constant of peroxynitrite decomposition [2]: 430000 M⁻¹ s⁻¹ | decay rates for the iron porphyrins (in the same studies) [1]: 4.6×10^5 | keat [1]: 4.6×10^5

Source: US8334377B2, “Porphyrin catalysts and methods of use thereof” (The Trustees of Princeton University, priority 2006, dated 2012)
